Data reported in US8053473B2, “Antibacterial agent comprising 7, 10-dihydroxy-8(E)-octadecenoic acid” (Kyung Pook National University Industry-Academic …, priority 2007, dated 2011).

How the values were obtained:
[1] = tested on: Bacillus subtilis ATCC 6501; assay: Antibacterial activity on solid agar medium 2; details: Gram positive, FIG. 7
[2] = tested on: Corynebacterium glutamicum KACC 10784; assay type: cell-based; details: liquid medium; Gram positive; FIG. 8
[3] = tested on: Staphylococcus aureus KCTC 1621; assay: Antibacterial activity on solid agar medium (clear zone around filter paper); details: 5 mg/spot, similar level with Bactroban (3 mg Mupirocin), FIG. 5
[4] = tested on: Xanthomonas axonopodis pv. citri KACC 10443; assay: Growth inhibition in liquid medium 2; assay type: cell-based; details: Gram negative, FIG. 8
[5] = tested on: Staphylococcus aureus ATCC 6538; assay: Antibacterial activity on solid agar medium 2; details: Gram positive, FIG. 7
[6] = tested on: Ralstonia solanacearum KACC 10475; assay: microbe, parasite or virus in culture; assay type: cell-based
[7] = tested on: Xanthomonas campestris KACC 10490; assay type: cell-based; details: liquid medium; Gram negative; FIG. 8
[8] = tested on: Pseudomonas syringae pv. sesami KACC 10649; assay type: cell-based; details: liquid medium; Gram negative; FIG. 8
[9] = tested on: Staphylococcus epidermidis KCTC 1917; assay: Antibacterial activity on solid agar medium 2; details: Gram positive, FIG. 7
[10] = tested on: Pseudomonas syringae pv. actinidae KACC 10659; assay type: cell-based; details: liquid medium; Gram negative; FIG. 8
Erwinia sp. KACC 10207 = assay type: cell-based; details: liquid medium; Gram negative; FIG. 8
[11] = tested on: Pseudomonas syringae pv. syringae KACC 10361; assay type: cell-based; details: liquid medium; Gram negative; FIG. 8
[12] = tested on: Listeria monocytogenes ATCC 19111; assay: Antibacterial activity on solid agar medium 2; details: Gram positive, FIG. 7
[13] = tested on: Bacillus subtillis ATCC 6501; assay: microbe, parasite or virus in culture; assay type: cell-based; details: ATCC6501, liquid YPD medium, OD540 up to 24 hours, read-out: minimal inhibitory concentration
[14] = tested on: Salmonella typhimurium KCTC 2515; assay: Antibacterial activity on solid agar medium (clear zone around filter paper)
[15] = tested on: Escherichia coli ATCC 8739; assay: Antibacterial activity on solid agar medium 2; details: Gram negative, FIG. 7

With CCCCCCCC[C@H](O)/C=C/[C@@H](O)CCCCCC(=O)O [DOD, 7,10-dihydroxy-8(E)-octadecenoic acid] the antibacterial activity [1] was “exhibited antibacterial activity”, the growth inhibitory effect [2] was “had growth inhibitory effect” and the “antibacterial activity (clear zone)” value [3] was “high antibacterial activity”. The growth inhibitory effect [4] was “had growth inhibitory effect”, the antibacterial activity [5] was “exhibited antibacterial activity” and the MIC ([6]; Ralstonia solanacearum, KACC10475, 24 h, read-out: minimal inhibitory concentration) was less than 125 µg/mL. The growth inhibitory effect ([6]; liquid medium, Gram negative, FIG. 8) was “had growth inhibitory effect”, the growth inhibitory effect [7] was “had growth inhibitory effect” and the growth inhibitory effect [8] was “had growth inhibitory effect”. For the same compound, the antibacterial activity [9] was “exhibited antibacterial activity”, the growth inhibitory effect [10] was “had growth inhibitory effect” and the growth inhibitory effect (Erwinia sp. KACC 10207) was “had growth inhibitory effect”. The growth inhibitory effect [11] was “had growth inhibitory effect”, the antibacterial activity [12] was “exhibited antibacterial activity” and the MIC [13] was less than 125 µg/mL. The “antibacterial activity (clear zone)” value ([14]; 5 mg/spot, similar level with Bactroban (3 mg Mupirocin), FIG. 5) was “high antibacterial activity”, the antibacterial activity ([14]; Gram negative, FIG. 7) was “exhibited antibacterial activity” and the antibacterial activity [15] was “exhibited antibacterial activity”.
